The subject of series [1] is DENV-2. The series is described as follows: DENV-2 replication in infected MK2 cells, viral RNA by real-time PCR. As to conditions: inferred from lower inhibition percentage of low concentrations at 48 and 72 hrs versus 24 hrs. Type of series: cell-based, Dengue virus serotype 2. The method, then:
The MK2 cell lines were grown in a 24-well tissue culture plate (1 × 10^5 cells/well), incubated 24 hrs under optimal conditions (37°C and 5% CO2). DENV-2 was added to the wells (MOI of 2) followed by incubation for 1 hr with gentle shaking every 10 min for optimal virus to cell contact. The virus supernatant was removed, and the cells were washed twice with fresh serum free DMEM media to remove residual virus. New complete DMEM media containing 2.5, 7.5 and 12.5 μM of PG-1 were added and the cultures were incubated for 24, 48 and 72 hrs. Afterwards, cellular supernatants were collected and stored at −80°C for viral quantification by real-time PCR.
For quantification of DENV-2 copies, the standard curve was generated by 10-fold serial dilution of known copies of DENV-2 RNA. Viral RNA was extracted from culture supernatant using QIAmp viral RNA minikit (QIAGEN, Germany) according to the manufacturer's instructions. A fragment located at the 5′UTR region of the virus genome was used to generate the primers. One-step RT-PCR using SyBr Green Master Kit (Qiagen, Germany) was used to conduct absolute quantification using ABI7300 machine from Applied Biosystems (Foster City, CA). […] Results were analyzed using Sequence Detection Software Version 1.3 (Applied Biosystems, Foster City, CA, USA).
Background: In qPCR the cycle at which signal appears reflects the starting amount.

In series [2] the target is dengue NS2B-NS3pro (Dengue virus type 2, UniProt P14340). Description: Dengue NS2B-NS3pro protease inhibition assay (fluorogenic substrate Boc-Gly-Arg-Arg-MCA). Type of series: biochemical, DENV-2. Here is the method: The bioassay used in this study was modified from the method published by Kiat and coworkers. Reaction mixtures with total volume of 200 μL were prepared. These reaction mixtures consisted of 100 μM fluorogenic peptide substrate (Boc-Gly-Arg-Arg-MCA), 2 μM NS2B-NS3pro complex, with or without PG-1 of varying concentrations, buffered at pH 8.5 with 200 mM Tris-HCl. The PG-1 was initially prepared in Tris-HCl buffer and assayed at five different concentrations. The reaction mixtures without fluorogenic peptide substrate were firstly incubated at 37°Cfor 30 minutes. Subsequently, the substrate was added and the mixture was further incubated at the same temperature for 30 minutes. Triplicates were performed for all measurements and the readings were taken using Tecan Infinite M200 Pro fluorescence spectrophotometer. Substrate cleavage was optimized at the emission at 440 nm upon excitation at 350 nm. The readings were then used for calculating Km values of peptide substrate and IC50 values of peptide inhibitors using nonlinear regression models in GraphPad Prism 5.01 software.
Chain of dengue NS2B-NS3pro (P14340 1394-1440 limits assumed): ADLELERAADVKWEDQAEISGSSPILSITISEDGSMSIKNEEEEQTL
Chain of dengue NS2B-NS3pro (P14340 1476-1660 limits assumed): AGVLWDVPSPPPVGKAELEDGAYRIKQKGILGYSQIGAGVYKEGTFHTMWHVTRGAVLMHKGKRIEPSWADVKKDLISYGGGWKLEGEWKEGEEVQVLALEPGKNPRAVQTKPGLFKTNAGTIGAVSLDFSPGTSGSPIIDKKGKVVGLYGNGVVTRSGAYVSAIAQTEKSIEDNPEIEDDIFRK

The source of these data is article PMC3470887, “Protegrin-1 Inhibits Dengue NS2B-NS3 Serine Protease and Viral Replication in MK2 Cells” (Journal of Biomedicine and Biotechnology, 2012).

Structures are written as SMILES.

`CC(C)C[C@H](NC(=O)[C@H](CCCNC(=N)N)NC(=O)CNC(=O)CNC(=O)[C@@H](N)CCCNC(=N)N)C(=O)N[C@H]1CSSC[C@@H](C(=O)N[C@H](C(=O)NCC(=O)N[C@@H](CCCNC(=N)N)C(N)=O)C(C)C)NC(=O)[C@H](C(C)C)NC(=O)[C@@H]2CSSC[C@H](NC(=O)[C@H](Cc3ccc(O)cc3)NC1=O)C(=O)N[C@@H](CCCNC(=N)N)C(=O)N[C@@H](CCCNC(=N)N)C(=O)N[C@@H](CCCNC(=N)N)C(=O)N[C@@H](Cc1ccccc1)C(=O)N2` [PG-1]: the “PG-1 stability in culture media” value in series [1] is “declined with longer incubation in culture media”. Also, in series [2] (2 μM NS2B-NS3pro, 100 μM Boc-Gly-Arg-Arg-MCA, 200 mM Tris-HCl pH 8.5, 37°C, 30 min pre-incubation + 30 min, triplicates, nonlinear regression GraphPad Prism), the IC50 was 11.7 µM. Further, at 40 µM the inhibition in series [2] (PG-1 at 40 μM, assayed at five concentrations, 10–160 μM) was 95.7%. For the same compound, in series [2] (kinetic assay, PG-1 0, 2.5, 5, 10 and 20 μM, Michaelis-Menten nonlinear regression, GraphPad Prism, read-out: Ki (inhibition constant)), the Ki turned out to be 5.85 µM.

Broadly, the IC50 is the concentration that inhibits the measured activity by half. What is called inhibition is the percentage by which the read-out fell short of the control. Read a low inhibition as a response near the control. Broadly, the Ki is the dissociation constant of the complex between target and ligand, obtained from inhibition or displacement.
